Source: patent US20190060298A1, “NEW DRUG FOR THE TREATMENT AND/OR PREVENTION OF DEPRESSIVE DISORDERS” (SORBONNE UNIVERSITE, priority 2013, published 2019)

Experiments:
Assay type in all cases: in vivo, Sprague-Dawley rats
[1] = system: CA3 neurons; test: Golgi staining, hippocampal CA3 neuron morphology; conditions: 288 μmol/kg/day, 15 days
Experimental: At D11 and D31, unperfused brains were rapidly removed and processed with the FD Rapid Golgistain kit (FD NeuroTechnologies), as previously described by Blugeot et al. (2011). Histological quantification: for each rat, the total dendrite length of apical CA3 dendritric branches was measured for selected neurons with AxioVision 4.7 software and a Zeiss Imager M1 microscope. 3-5 hippocampal neurons per rat are selected for measurement by an investigator blind to the origin of the experimental animal. Dendritic tracing was quantified by Sholl analysis (Sholl, 1953). The number of intersections between the dendrites and the concentric circles was counted and plotted as a function of the distance from the soma. The density of dendritic spines was estimated by counting the number of apical dendritic spines in 3-4 segments of 15 μm located in the stratum radiatum, at 1000× resolution. Spine density was expressed as the number of spines per 15 μm length of apical dendrite.
Tempol (4-hydroxy-2,2,6,6-tetramethylpiperidine 1-oxyl), which was administered at a dose of 288 μmol/kg/day [Sigma-Aldrich, St Louis, Mo., USA]), was dissolved in distilled water and delivered via ALZET osmotic mini-pumps (2002, Charles River Laboratories, France). Tempol- or distilled water-filled pumps were implanted subcutaneously on the back of intruder rats under light anesthesia with isofluorane, 11 days after completion of the social-defeat procedure (D11), and were left in place for 15 days.

[2] = system: glutathione peroxidase (GPx); test: Glutathione peroxidase activity in hippocampus; conditions: 288 μmol/kg/day, 15 days from D11; D31
Experimental: The right hippocampus was homogenized in ice-cold buffer (Tris-HCl 50 mM pH 7.5, 150 mM NaCl, 1 mM EDTA) and used for TBARS and glutathione peroxidase (GPx) assays.
For the TBARS assay, protease inhibitors (50 μl/ml), DOC (1%), SDS (0.1%) and Triton® X-100 (0.5%) were added immediately in ice-cold buffer. For the GPx assay, 0.1 M dithiothreitol was added immediately in ice-cold buffer. The homogenates were centrifuged and the supernatants were retained for analysis. Lipid peroxidation was assessed by measuring TBARS formation with a commercial assay kit (Cayman Chemical, Ann Arbor, Mich., USA), in accordance with the manufacturer's instructions. TBARS concentration was calculated from an MDA standard curve and normalized. Total GPx activity in the homogenate was measured in accordance with the kit manufacturer's instructions (Cayman Chemical, Ann Arbor, Mich., USA). GPx specific activity is expressed as nmoles of NADPH consumed per minute per mg of hippocampal tissue. No difference in hippocampal weight was observed between defeated, vulnerable, non-vulnerable and control animals.
Tempol (4-hydroxy-2,2,6,6-tetramethylpiperidine 1-oxyl), which was administered at a dose of 288 μmol/kg/day [Sigma-Aldrich, St Louis, Mo., USA]), was dissolved in distilled water and delivered via ALZET osmotic mini-pumps (2002, Charles River Laboratories, France). […]

[3] = system: oxidative stress; test: Oxidative stress state in hippocampus after chronic social defeat; conditions: vulnerable (V) rats; 288 μmol/kg/day via osmotic mini-pump for 15 days from D11; measured D31
Experimental: The social-defeat procedure (CSD) (D-3 to DO) was performed as previously described (see Becker et al., 2001; Blugeot et al., 2011).
Briefly, this procedure involved subjecting the same pairs of residents and intruders to four daily conditioning sessions. The 45-min conditioning sessions were divided into two consecutive periods. During period I (30 min), intruders were placed individually in a protective cage within the resident animal's home cage. The protective cage allowed unrestricted visual, auditory, and olfactory contact with the resident but prevented close physical contact. […]
The animals were decapitated and the left hippocampus was homogenized in ice-cold buffer (20 mM Hepes pH 7.2, 1 mM EGTA, 210 mM mannitol, 70 mM sucrose). […] Catalase and total SOD activities were immediately determined with commercially available kits (Cayman Chemical, Ann Arbor, Mich., USA), in accordance with the manufacturer's instructions. SOD and catalase specific activities are expressed as units per mg of hippocampus and as nmoles of formaldehyde formed per minute per mg of hippocampal tissue, respectively. […]
For the TBARS assay, protease inhibitors (50 μl/ml), DOC (1%), SDS (0.1%) and Triton® X-100 (0.5%) were added immediately in ice-cold buffer. […] TBARS concentration was calculated from an MDA standard curve and normalized. […]

`CC1(C)CC(O)CC(C)(C)N1[O]` [TEMPOL, 4-hydroxy-2,2,6,6-tetramethylpiperidin-1-oxyl] was tested, and the “dendritic trees (total apical dendrite length of CA3 neurons)” value ([1]; NV and V animals, D31) was “fully restored”, the “spine density (CA3 dendritic spines)” value ([1]; NV and V animals, D31) was “fully restored” and the “total length of hippocampal neurons” value ([1]; non-vulnerable and control animals vs vehicle-treated) was “tends to increase”. The “glutathione peroxidase (GPx) activity” value [2] was “mild effect” and the oxidative stress [3] was “decreased the oxidative stress in V animals”.
